Laboratory results as given in US11780841B2, “3,6-methano-1H-pyrrolo[3,2-b]pyridine and 3,6-methano-1H-pyrrolo[3,2-c]pyridine compounds and medicaments using same” (priority 2018, dated 2023).

tested on: recombinant rabies virus 1088 strain expressing Gaussia Luciferase (GLuc) (1088/GLuc); format: cell-based; details: read-out: Anti-rabies activity

**Q.** For `COc1ccc(CN2CC3CC4(C(=O)NCc5ccccc5)N=CC3C2C4CC(C)C)cc1` (stereo not drawn) [IIF-85], which IC50 is on record?
**A.** 5 to 10 µM

**Q.** For `Cc1ccc(CN2CC3CC4(C(=O)NCc5ccccc5)N=CC3C2C4CC(C)C)cc1` (stereo not drawn) [IIF-86], which IC50 is on record?
**A.** < 5 µM

**Q.** With `CC(C)CC1C2C3C=NC1(C(=O)NCc1ccccc1)CC3CN2Cc1ccc(N(C)C)cc1` (stereo not drawn) [IIF-94] as the compound, how does the IC50 read?
**A.** 5 to 10 µM

**Q.** With `CC(C)CC1C2C3C=NC1(C(=O)NCc1ccccc1)CC3CN2Cc1ccc(C(C)(C)C)cc1` (stereo not drawn) [IIF-95] as the compound, how does the IC50 read?
**A.** < 5 µM

**Q.** With `CC(C)CC1C2C3C=NC1(C(=O)NCc1ccccc1)CC3CN2Cc1ccc(OC(F)(F)F)cc1` (stereo not drawn) [IIF-96] as the compound, how does the IC50 read?
**A.** 5 to 10 µM

**Q.** Which IC50 does the source give for `CCOc1ccc(CN2CC3CC4(C(=O)NCc5ccccc5)N=CC3C2C4CC(C)C)cc1` (stereo not drawn) [IIF-97] here?
**A.** 10 to 30 µM

**Q.** For `CC(C)CCC1C2C3C=NC1(C(=O)NCc1ccccc1)CC3CN2Cc1ccc(O)cc1` (stereo not drawn) [IIF-101], which IC50 is on record?
**A.** 5 to 10 µM

**Q.** With `CC(C)CC1C2C3C=NC1(C(=O)NCc1ccc4ccccc4c1)CC3CN2Cc1ccccc1` (stereo not drawn) [IIF-102] as the compound, how does the IC50 read?
**A.** < 5 µM

**Q.** Which IC50 does the source give for `CC(C)CCN1CC2CC3(C(=O)NCc4ccc(Cl)cc4)N=CC2C1C3CC(C)C` (stereo not drawn) [IIF-103] here?
**A.** 5 to 10 µM

**Q.** For `CC(C)CCN1CC2CC3(C(=O)NCc4ccc(F)cc4)N=CC2C1C3CC(C)C` (stereo not drawn) [IIF-104], which IC50 is on record?
**A.** 5 to 10 µM

same assay, conditions: read-out: anti-rabies virus activity IC50

**Q.** For `NC(=O)c1nc(F)c[nH]c1=O` [Compound T-705, Favipiravir], which IC50 is on record?
**A.** 30 µM

tested on: rabies virus; details: mouse, in vivo; cited from earlier work

**Q.** Which “prophylactic effect on rabies virus” value does the source give for `NC(=O)c1nc(F)c[nH]c1=O` [Compound T-705, Favipiravir] here?
**A.** significant prophylactic effect was confirmed
